The source made the active and inactive calls. The calls are words filed in the database; no cut-off is given here.
Tests used:
Format in all cases: cell-based
[1] = molecular target: T1, Peroxisome proliferator-activated receptor alpha (Homo sapiens) (UniProt Q07869); test: Agonist activity at N-terminal Gal4 fused human PPARalpha LBD transfected in HEK293 cells at < 10 uM after 24 hrs by luciferase reporter gene assay
T1 sequence (whole entry): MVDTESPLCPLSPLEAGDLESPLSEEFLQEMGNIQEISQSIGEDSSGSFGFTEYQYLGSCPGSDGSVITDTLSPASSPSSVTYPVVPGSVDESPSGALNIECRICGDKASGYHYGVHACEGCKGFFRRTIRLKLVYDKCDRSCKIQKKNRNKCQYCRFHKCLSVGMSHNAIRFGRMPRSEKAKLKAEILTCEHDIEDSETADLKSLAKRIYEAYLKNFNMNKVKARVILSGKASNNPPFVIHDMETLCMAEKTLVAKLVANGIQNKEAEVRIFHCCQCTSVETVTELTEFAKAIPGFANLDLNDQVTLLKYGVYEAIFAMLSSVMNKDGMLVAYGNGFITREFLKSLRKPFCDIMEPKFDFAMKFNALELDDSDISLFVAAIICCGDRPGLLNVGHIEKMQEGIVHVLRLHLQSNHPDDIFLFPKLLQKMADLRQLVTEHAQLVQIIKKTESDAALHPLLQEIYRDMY

[2] = molecular target: T2, Peroxisome proliferator-activated receptor delta (Homo sapiens) (UniProt Q03181); test: Agonist activity at N-terminal Gal4 fused human PPARdelta LBD transfected in HEK293 cells at < 10 uM after 24 hrs by luciferase reporter gene assay
T2 sequence (whole entry): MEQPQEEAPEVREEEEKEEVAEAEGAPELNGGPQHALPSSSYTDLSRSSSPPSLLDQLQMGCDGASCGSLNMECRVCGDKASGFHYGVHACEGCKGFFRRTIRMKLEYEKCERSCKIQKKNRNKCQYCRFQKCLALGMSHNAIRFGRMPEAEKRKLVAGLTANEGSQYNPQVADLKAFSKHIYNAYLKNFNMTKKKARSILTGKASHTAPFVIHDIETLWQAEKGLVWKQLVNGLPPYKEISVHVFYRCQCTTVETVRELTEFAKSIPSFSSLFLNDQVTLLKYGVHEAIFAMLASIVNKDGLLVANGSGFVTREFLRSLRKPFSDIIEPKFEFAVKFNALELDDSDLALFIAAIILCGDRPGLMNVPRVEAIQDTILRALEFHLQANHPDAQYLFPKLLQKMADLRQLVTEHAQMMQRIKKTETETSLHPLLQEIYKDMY

[3] = molecular target: T3, Peroxisome proliferator-activated receptor gamma (Homo sapiens) (UniProt P37231); test: Agonist activity at N-terminal Gal4 fused human PPARgamma LBD transfected in HEK293 cells at < 10 uM after 24 hrs by luciferase reporter gene assay
T3 sequence (whole entry): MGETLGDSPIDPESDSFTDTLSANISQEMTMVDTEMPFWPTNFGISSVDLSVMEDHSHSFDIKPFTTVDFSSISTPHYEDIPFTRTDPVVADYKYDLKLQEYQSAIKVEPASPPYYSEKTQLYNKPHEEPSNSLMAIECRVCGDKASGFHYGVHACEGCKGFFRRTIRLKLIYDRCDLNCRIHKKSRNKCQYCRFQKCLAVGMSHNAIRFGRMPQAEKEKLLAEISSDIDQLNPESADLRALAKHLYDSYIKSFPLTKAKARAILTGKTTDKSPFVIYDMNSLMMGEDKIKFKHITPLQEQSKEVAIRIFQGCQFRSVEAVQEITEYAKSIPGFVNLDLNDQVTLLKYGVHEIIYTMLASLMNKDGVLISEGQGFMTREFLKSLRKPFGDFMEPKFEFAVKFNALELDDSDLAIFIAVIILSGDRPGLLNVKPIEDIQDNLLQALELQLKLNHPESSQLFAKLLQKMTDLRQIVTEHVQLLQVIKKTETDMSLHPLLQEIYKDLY

[4] = molecular target: T4, Peroxisome proliferator-activated receptor alpha (Homo sapiens, UniProt Q07869); test: Agonist activity at N-terminal Gal4 fused human PPARalpha LBD transfected in HEK293 cells after 24 hrs by luciferase reporter gene assay
T4 sequence (Q07869 whole entry): T1 sequence (whole entry)

[5] = molecular target: T5, Peroxisome proliferator-activated receptor delta (Homo sapiens, UniProt Q03181); test: Agonist activity at N-terminal Gal4 fused human PPARdelta LBD transfected in HEK293 cells after 24 hrs by luciferase reporter gene assay
T5 sequence (Q03181 whole entry): T2 sequence (whole entry)

[6] = molecular target: T1, Peroxisome proliferator-activated receptor alpha (Homo sapiens); test: Agonist activity at N-terminal Gal4 fused human PPARalpha LBD transfected in HEK293 cells after 24 hrs by luciferase reporter gene assay relative to GW7647
[7] = molecular target: T2, Peroxisome proliferator-activated receptor delta (Homo sapiens); test: Agonist activity at N-terminal Gal4 fused human PPARdelta LBD transfected in HEK293 cells after 24 hrs by luciferase reporter gene assay relative to GW501516

Row | SMILES | Activity [1] | Activity [2] | Activity [3] | EC50 [4] [nM] | EC50 [5] [nM] | Emax [6] [%] | Emax [7] [%]
1 | CC(=O)N(C)Cc1nc(-c2ccc(Oc3ccc(OCc4ccccc4)cc3)cc2)no1 | inactive | inactive | inactive |  |  |  | 
2 | COC(=O)NC(C)c1nc(-c2ccc(Oc3ccc(O)cc3)cc2)no1 (stereo not given) | inactive | inactive | inactive |  |  |  | 
3 | CC(=O)NC(C)(C)c1nc(-c2ccc(Oc3ccc(OCc4ccccc4)cc3)cc2)no1 | inactive | inactive | inactive |  |  |  | 
4 | CC(NC(=O)C(F)(F)F)c1nc(-c2ccc(Oc3ccc(O)cc3)cc2)no1 (stereo not given) | inactive | inactive | inactive |  |  |  | 

Now from value to compound:

Row | Activity [1] | Activity [2] | Activity [3] | EC50 [4] [nM] | EC50 [5] [nM] | Emax [6] [%] | Emax [7] [%] | SMILES
5 |  |  | inactive | 100 | 150 | 10 to 40 | 5 to 15 | CC(NC(=O)C(F)(F)F)c1nc(-c2ccc(Oc3ccc(OCc4ccccc4)cc3)cc2)no1 (stereo not given)
6 | inactive | inactive | inactive |  |  |  |  | CC(=O)NCc1nc(-c2ccc(Oc3ccc(OCc4ccccc4)cc3)cc2)no1
7 |  |  | inactive | 100 | 290 | 10 to 40 | 5 to 15 | COC(=O)NC(C)c1nc(-c2ccc(Oc3ccc(OCc4ccccc4)cc3)cc2)no1 (stereo not given)
